According to patent publication US11306344B2, “Spectral intensity ratio (SIR) analysis for rapid live microbial enumeration” (TACOUNT EXACT LTD., priority 2015, dated 2022):
Like-named read-outs stand apart in the source and are kept apart here.

Legend:
[1] = tested on: E. coli K12 (MG1655); assay: Flow-Cytometry SIR analysis of E. coli K12 grown with ampicillin (FM 1-43 staining); assay type: cell-based; conditions: 1 hour
Procedure: The disclosed method was further validated in studies using E. coli K12 (MG1655, obtained from ATCC). After 5 hours of growth in medium, E. coli were divided into three groups: (A) grown for one hour with no antibiotics, (B) grown for one hour with 700 micrograms of ampicillin, and (C) grown for one hour with 1500 micrograms of ampicillin.
The bacteria were suspended in PBS and stained with FM® 1-43 (43N-(3-Triethylammoniumpropyl)-4-(4-(Dibutylamino) Styryl) Pyridinium Dibromide) ([…] as per the methodology described earlier.
Flow-Cytometry measurements of the stained bacterial samples were performed. In order to adjust the flow-cytometry to the spectral characterization as shown in the fluorescence spectra of the FM® 1-43 (43N-(3-Triethylammoniumpropyl)-4-(4-(Dibutylamino) Styryl) Pyridinium Dibromide) stained bacteria, the […] nm excitation channel of the flow-cytometry and two fluorescence channel using 530 (30) nm and 610 (20) nm as the λ1 and λ2 for the SIR calculation were used. The results are tabulated below and depicted in FIG. 14.

[2] = tested on: E. coli - O157; assay type: cell-based, E. coli O157:H7 (EHEC)
[3] = tested on: E. coli #8739; assay: Fluorimeter (spectrofluorimetry) spectra, SIR and NVP of dye-stained bacteria; assay type: cell-based
[4] = tested on: Pseudomonas aeruginosa; assay: Flow-Cytometry NVP of dye-stained bacteria; assay type: cell-based, Ps. Aeruginosa
[5] = tested on: S. aureus; assay: Flow-Cytometry NVP of dye-stained bacteria; assay type: cell-based
[6] = tested on: Enterococcus faecalis; assay: Flow-Cytometry SIR and NVP of dye-stained bacteria; assay type: cell-based, E. faecalis
[7] = tested on: E. coli #8739; assay: Flow-Cytometry SIR and NVP of dye-stained bacteria; assay type: cell-based; conditions: for NVP calculation / SIR calculation: 670 (14)/780 (60) nm channels
[8] = tested on: Enterococcus faecium; assay: Flow-Cytometry NVP of dye-stained bacteria; assay type: cell-based, E. faecium
[9] = tested on: Entrobacter cloacae; assay: Flow-Cytometry NVP of dye-stained bacteria; assay type: cell-based, E. cloacae
[10] = tested on: E. coli - #25922; assay: Flow-Cytometry NVP of dye-stained bacteria; assay type: cell-based; conditions: FM 1-43 staining
[11] = tested on: Bacillus subtillis; assay: Flow-Cytometry NVP of dye-stained bacteria; assay type: cell-based, B. subtilis
[12] = tested on: Entrobacter aerogenes; assay: Flow-Cytometry NVP of dye-stained bacteria; assay type: cell-based, E. aerogenes

Compound: CC1(C)S[C@@H]2[C@H](NC(=O)[C@H](N)c3ccccc3)C(=O)N2[C@H]1C(=O)O [ampicillin]
- % from population ([1]; 700 μg ampicillin, DEAD gate): 15%
- SIR ([1]; 700 μg ampicillin, DEAD gate): 4.4
- % from population ([1]; 700 μg ampicillin, LIVE gate): 83.7%
- SIR ([1]; 700 μg ampicillin, LIVE gate): 1
- % from population ([1]; 1500 μg ampicillin, DEAD gate): 20%
- SIR ([1]; 1500 μg ampicillin, DEAD gate): 5.3
- % from population ([1]; 1500 μg ampicillin, LIVE gate): 78%
- SIR ([1]; 1500 μg ampicillin, LIVE gate): 1

Compound: CCCCN(CCCC)c1ccc(/C=C/c2cc[n+](CCC[N+](CC)(CC)CC)cc2)cc1.[Br-].[Br-] [FM® 1-43, N-(3-Triethylammoniumpropyl)-4-(4-(Dibutylamino) Styryl) Pyridinium Dibromide]
- NVP values [2]: ~10
- NVP values ([2]; FM 1-43 staining, Heated): ~10
- Non-Viability Parameter (NVP) ([3]; 85°, 15 min): ~5
- SIR (I610/I530) ([3]; 85°, 15 min): ~7
- Non-Viability Parameter (NVP) ([3]; Chlorine 0.05%): ~5
- SIR (I610/I530) ([3]; Chlorine 0.05%): ~8
- Non-Viability Parameter (NVP) ([3]; Ethanol 70%): ~3
- SIR (I610/I530) ([3]; Ethanol 70%): 4.4
- SIR (I610/I530) ([3]; Live bacteria): ~1.5
- Non-Viability Parameter (NVP) ([3]; UV-LP 30 mJ): 1
- SIR (I610/I530) ([3]; UV-LP 30 mJ): 1
- Non-Viability Parameter (NVP) ([3]; UV-MP 30 mJ): ~2
- SIR (I610/I530) ([3]; UV-MP 30 mJ): 3.7
- NVP values ([4]; FM 1-43 staining, Chlorine): 5
- NVP values ([4]; FM 1-43 staining, Heated): 4.6
- NVP values ([4]; FM 1-43 staining, UV-MP): 3.2
- NVP values ([5]; FM 1-43 staining, Chlorine): 1.7
- NVP values ([5]; FM 1-43 staining, Heated): 1.6
- NVP values ([5]; FM 1-43 staining, UV-MP): 1.1
- NVP ([6]; 530(30)/610(20), Chlorine): 2
- NVP ([6]; 530(30)/610(20), Heated): 1.6
- NVP ([6]; 530(30)/610(20), UV-MP): 1.1
- SIR: 530(30)/610(20) ([6]; Chlorine): 13
- NVP values ([6]; FM 1-43 staining, Chlorine): 2
- NVP values ([6]; FM 1-43 staining, Heated): 1.6
- NVP values ([6]; FM 1-43 staining, UV-MP): 1.1
- SIR: 530(30)/610(20) ([6]; Heated): 10.3
- SIR: 530(30)/610(20) ([6]; Live): 6.5
- SIR: 530(30)/610(20) ([6]; UV-MP): 7.1
- Non-Viability Parameter (NVP) ([7]; 85°, 15 min): 9
- SIR (610/530) Ratio ([7]; 85°, 15 min): 8.8
- Non-Viability Parameter (NVP) ([7]; Chlorine 0.05%): 10
- SIR (610/530) Ratio ([7]; Chlorine 0.05%): 9.6
- Non-Viability Parameter (NVP) ([7]; Ethanol 70%): 7
- SIR (610/530) Ratio ([7]; Ethanol 70%): 6.5
- NVP values ([7]; FM 1-43 staining, Chlorine): 10
- NVP values ([7]; FM 1-43 staining, Heated): 9
- NVP values ([7]; FM 1-43 staining, UV-MP): 5
- SIR (610/530) Ratio ([7]; Live bacteria): 0.73
- Non-Viability Parameter (NVP) ([7]; UV-LP 30 mJ): 1
- SIR (610/530) Ratio ([7]; UV-LP 30 mJ): 0.7
- Non-Viability Parameter (NVP) ([7]; UV-MP 30 mJ): 5
- SIR (610/530) Ratio ([7]; UV-MP 30 mJ): 3.5
- NVP values ([8]; FM 1-43 staining, Chlorine): 1.7
- NVP values ([8]; FM 1-43 staining, Heated): 1.6
- NVP values ([9]; FM 1-43 staining, Chlorine): 10
- NVP values ([9]; FM 1-43 staining, Heated): 8
- NVP values ([9]; FM 1-43 staining, UV-MP): 5
- NVP values ([10]; Chlorine): 9
- NVP values ([10]; Heated): 7
- NVP values ([10]; UV-MP): 5
- NVP values ([11]; FM 1-43 staining, Chlorine): 1.5
- NVP values ([11]; FM 1-43 staining, Heated): 1.2
- NVP values ([11]; FM 1-43 staining, UV-MP): 1.2
- NVP values ([12]; FM 1-43 staining, Chlorine): 12
- NVP values ([12]; FM 1-43 staining, Heated): 8
- NVP values ([12]; FM 1-43 staining, UV-MP): 4.5

Compound: CCN(CC)c1ccc(C=CC=CC=Cc2cc[n+](CCC[N+](CC)(CC)CC)cc2)cc1.[Br-].[Br-] [FM® 4-64, N-(3-Triethylammoniumpropyl)-4-(6-(4-(Diethylamino) Phenyl) Hexatrienyl) Pyridinium Dibromide]
- NVP values ([4]; FM 4-64 staining, Chlorine): 2
- NVP values ([4]; FM 4-64 staining, Heated): 1.8
- NVP values ([5]; FM 4-64 staining, Chlorine): 2.4
- NVP values ([5]; FM 4-64 staining, Heated): 3
- NVP values ([5]; FM 4-64 staining, UV-MP): 1.1
- NVP ([6]; 670(14)/780(60), Chlorine): 2.9
- NVP ([6]; 670(14)/780(60), Heated): 3
- NVP ([6]; 670(14)/780(60), UV-MP): 1.2
- SIR: 670(14)/780(60) ([6]; Chlorine): 19.7
- NVP values ([6]; FM 4-64 staining, Chlorine): 2.9
- NVP values ([6]; FM 4-64 staining, Heated): 3
- NVP values ([6]; FM 4-64 staining, UV-MP): 1.2
- SIR: 670(14)/780(60) ([6]; Heated): 20
- SIR: 670(14)/780(60) ([6]; Live): 6.7
- SIR: 670(14)/780(60) ([6]; UV-MP): 8.1
- NVP calculation ([7]; Chlorinated): 3.4
- SIR calculation ([7]; Chlorinated): 12
- NVP calculation ([7]; Heated (85°, 15 min)): 4
- SIR calculation ([7]; Heated (85°, 15 min)): 14
- SIR calculation ([7]; Live): 3.5
- NVP calculation ([7]; UV-MP): 3.7
- SIR calculation ([7]; UV-MP): 13
- NVP values ([7]; FM 4-64 staining, Chlorine): 3.4
- NVP values ([7]; FM 4-64 staining, Heated): 4
- NVP values ([7]; FM 4-64 staining, UV-MP): 3.7
- NVP values ([8]; FM 4-64 staining, Chlorine): 3
- NVP values ([8]; FM 4-64 staining, Heated): 3
- NVP values ([9]; FM 4-64 staining, Chlorine): 4.5
- NVP values ([9]; FM 4-64 staining, Heated): 3.7
- NVP values ([9]; FM 4-64 staining, UV-MP): 2.5
- NVP values ([11]; FM 4-64 staining, Chlorine): 1.5
- NVP values ([11]; FM 4-64 staining, Heated): 1.8
- NVP values ([12]; FM 4-64 staining, Chlorine): 4.5
- NVP values ([12]; FM 4-64 staining, Heated): 3.3
- NVP values ([12]; FM 4-64 staining, UV-MP): 1.7
